Laboratory results published in patent US12018059B2, “Human amylin analog polypeptides and methods of use” (Intarcia Therapeutics, Inc., priority 2018, dated 2024).
Read-outs that look alike come from different tables or passages of the source. Positions of bridges follow the written chain, without caps; N, C: chain ends. Non-standard residues stand in square brackets, D forms with d. Residues, ends and D or L forms follow the SMILES beside them.

Key:
[1] = Pharmacokinetics, 3-hour intravenous infusion of linear (non-acylated) polypeptides; parameters: species or system Sprague-Dawley rats; settings: rat, in vivo, 0.1 mg/kg
Method: Peptides were dissolved in sterile saline and administered as a 3-hour intravenous infusion to non-fasted male Sprague-Dawley rats (n=3 per group) via femoral vein cannula at a final dose of 0.100 mg/kg. […] Blood samples (approximately 250 μL) were collected for pharmacokinetic analysis via a jugular vein cannula at 0.25, 0.5, 1, 2, 3, 3.17, 3.33, 3.5, 4, 4.5, 5, and 6 hr post-start of infusion (long method) or at 1, 1.5, 2, 2.5, and 3 hr post-start of infusion (steady-state screening method). All samples were collected into microtainer tubes containing K2EDTA as anticoagulant and 25 μL of a protease inhibitor cocktail. Plasma was prepared by centrifugation and stored at −80° C. until analysis. The results of this analysis are shown in Table 9 and few exemplars in FIGS. 3a-3b.
A 60 μL aliquot of each plasma sample was placed into to a 96-well plate. To each well was added 6 μL of 0.5% Tween-20. Plates were then vortexed mixed for 10 minutes at 1200 rpm before 180 μL of 0.1% TFA in 2:1 ethanol:acetonitrile containing an appropriate internal standard was added to each well. Plates were vortex mixed for 5 min at 1300 rpm, and then centrifuged for 10 min at 2844×g. Supernatants (180 μL) were placed into a clean 96-well plate and evaporated under a nitrogen stream at 45° C. Residues were reconstituted in 80 μL of 20% acetonitrile (aq) containing 0.1% formic acid.
A […] aliquot of each plasma sample was diluted with […] of 10 mM ammonium acetate (pH 6.8) containing an appropriate internal standard and loaded onto an Oasis WCX microElution plate (Waters Corporation, Milford, MA) that had been pre-conditioned with […] of methanol and […] of deionized water. Samples were washed with […] of 5% ammonium hydroxide (aq) followed by […] of 20% acetonitrile in water. The analyte was eluted with […] of 5% formic acid in 75:25 acetonitrile:water. The eluent was dried under a nitrogen stream. Residues were reconstituted in 80 μL of 20% acetonitrile (aq) containing 0.1% formic acid.
All calibration standards were prepared in control rat plasma containing K2EDTA and protease inhibitor cocktail.
Samples and standards were analyzed by TurbolonSpray™ UPLC-MS/MS using a system consisting of a CTC HTS PAL auto-injector (Leap, Carrboro, NC), an Agilent Infinity 1290 system with column oven (Palo Alto, CA), a Valco switching valve (Houston, TX), and either an AB Sciex API 5600 TripleTOF™ or Sciex API 4000QTrap mass spectrometer (Framingham, MA). Samples were injected onto a 2.1×50 mm reverse phase C18 analytical column, typically a Waters CORTECS UPLC C18+, 1.6 μm (Waters Corporation, Milford, MA) or similar. […] Initial conditions consisted of 90% A and 10% B. The organic component was increased to 95% B over a period of 3-4 minutes, depending on the peptide. Typical flow rates were 600 μL/min. The column temperature was held constant at 40 or 50° C. Peptides were quantified by monitoring one or more product ions produced from a multiply charged parent ion.

[2] = biological target: T1, human calcitonin receptor (hCTR) (Homo sapiens, UniProt P30988); test: cAMP accumulation functional assay in HEK293-CNG cells expressing hCTR; type: cell-based; settings: presence versus absence of HSA (FIG. 2D)
T1 sequence (P30988 25-474): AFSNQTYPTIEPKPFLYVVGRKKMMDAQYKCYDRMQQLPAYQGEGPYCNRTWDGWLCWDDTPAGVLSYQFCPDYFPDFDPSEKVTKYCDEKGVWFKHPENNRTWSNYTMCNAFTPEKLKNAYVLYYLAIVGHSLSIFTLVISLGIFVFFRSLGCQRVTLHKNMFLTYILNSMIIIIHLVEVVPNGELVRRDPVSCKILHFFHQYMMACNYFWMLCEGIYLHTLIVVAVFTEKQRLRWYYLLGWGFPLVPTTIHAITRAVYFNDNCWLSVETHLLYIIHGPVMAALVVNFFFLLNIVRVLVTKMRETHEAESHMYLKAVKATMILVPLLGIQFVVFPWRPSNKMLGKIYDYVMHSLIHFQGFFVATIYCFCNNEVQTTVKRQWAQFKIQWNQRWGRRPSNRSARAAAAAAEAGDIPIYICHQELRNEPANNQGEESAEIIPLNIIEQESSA
Method: In the presence of the non-specific cAMP/cGMP phosphodiesterase inhibitor 3-isobutyl-1-methylxanthine (IBMX), accumulating cAMP can be measured in vitro using common detection methods. Thus, it is possible to estimate an in vitro potency (pEC50) for peptides activating each of these receptors using fit dose-response curves for cAMP accumulation.
Cells were carried in growth media for no more than 10 passages prior to testing.
Peptides were serially diluted in the same buffer as above for each given assay condition. Two assay control solutions consisting of 50 mcM forskolin (cAMP system maximum) or assay buffer only (cAMP system minimum) were also prepared in the appropriate stimulation buffers. Five microliters of each peptide-concentration, or assay control was added to triplicate wells and incubated for thirty minutes at room temperature. During this incubation step a 4× europium labelled cAMP tracer solution and a 4× Ulight®-anti-cAMP solution (consisting of an anti-cAMP monoclonal antibody labelled with Ulight™ dye) was prepared according to the manufacturer's protocol (PerkinElmer LANCE Ultra cAMP kit). Following this incubation, 5 mcL europium labelled cAMP and 5 mcL Ulight anti-cAMP antibody was added to wells. The plate was covered with an adhesive cover to prevent evaporation and incubated for 60 minutes at room temperature in the dark. Plates were read on an Envision fluorescent plate reader (PerkinElmer).
Test values were first normalized to the forskolin induced cAMP system maximum and system minimum averaged values in Excel using the formula: (test value−system minavg)/(system maxavg−system minavg)*100. Normalized test values represent a baseline corrected percentage of the system maximum cAMP response induced by forskolin. Normalized data was analyzed from triplicate tests and used to estimate the EC50 for each peptide on each receptor. Data was fit in GraphPad Prism software (v7.04) using a 4-parameter logistic curve model: Y=Bottom+(Top−Bottom)/(1+10^((Log EC50−X))). The Hill slope was constrained to 1.0. EC50 values were converted to pEC50 values using the formula: pEC50=−Log (EC50).

SMILES	clearance ([1]; iv) [mL/min/kg]	further results
CC[C@H](C)[C@H](NC(=O)[C@@H]1CCCN1C(=O)CNC(=O)[C@H](Cc1ccccc1)NC(=O)[C@H](CC(N)=O)NC(=O)[C@H](CC(N)=O)NC(=O)[C@H](CO)NC(=O)[C@H](CO)NC(=O)[C@H](CCCCN)NC(=O)[C@H](Cc1c[nH]cn1)NC(=O)[C@H](CC(C)C)NC(=O)[C@H](CCC(=O)O)NC(=O)[C@H](CC(N)=O)NC(=O)[C@H](C)NC(=O)[C@H](CC(C)C)NC(=O)[C@H](CCCNC(=N)N)NC(=O)[C@H](CCC(N)=O)NC(=O)[C@@H](NC(=O)[C@H](C)NC(=O)[C@@H]1CSSC[C@H](NC(=O)[C@@H](N)CO)C(=O)N[C@@H](CC(N)=O)C(=O)N[C@@H]([C@@H](C)O)C(=O)N[C@@H](CO)C(=O)N[C@@H]([C@@H](C)O)C(=O)N1)[C@@H](C)O)C(=O)N[C@@H](CC(C)C)C(=O)N1CCC[C@H]1C(=O)N1CCC[C@H]1C(=O)N[C@H](C(=O)N[C@@H](CCCCN)C(=O)N[C@H](C(=O)NCC(=O)N[C@@H](CO)C(=O)N[C@@H](CC(N)=O)C(=O)N[C@H](C(=O)N[C@@H](Cc1ccc(O)cc1)C(N)=O)[C@@H](C)O)C(C)C)[C@@H](C)O [Compound A17] (H-SCNTSTCATQRLANELHKSSNNFGPILPPTKVGSNTY-NH2; disulfide 2-7)		clearance ([1]; linear polypeptides, 3-hour intravenous infusion, 0.100 mg/kg, male Sprague-Dawley rats, read-out: CL): 20 mL/min/kg
CC[C@H](C)[C@H](NC(=O)[C@H](C)NC(=O)[C@@H](NC(=O)[C@H](CCC(N)=O)NC(=O)[C@@H]1CCCN1C(=O)[C@H](Cc1ccccc1)NC(=O)[C@@H](NC(=O)[C@H](Cc1c[nH]cn1)NC(=O)[C@H](Cc1ccccc1)NC(=O)[C@H](CCCCN)NC(=O)[C@H](CC(N)=O)NC(=O)[C@H](Cc1ccccc1)NC(=O)[C@H](CC(=O)O)NC(=O)[C@H](CCC(N)=O)NC(=O)[C@@H](NC(=O)[C@H](Cc1ccc(O)cc1)NC(=O)[C@@H](NC(=O)CNC(=O)[C@H](CC(C)C)NC(=O)[C@H](CCSC)NC(=O)[C@@H]1CSSC[C@H](N)C(=O)NCC(=O)N[C@@H](CC(N)=O)C(=O)N[C@@H](CC(C)C)C(=O)N[C@@H](CO)C(=O)N[C@@H]([C@@H](C)O)C(=O)N1)[C@@H](C)O)[C@@H](C)O)[C@@H](C)O)[C@@H](C)O)C(=O)NCC(=O)N[C@H](C(=O)NCC(=O)N[C@@H](C)C(=O)N1CCC[C@H]1C(N)=O)C(C)C [hCalcitonin, human calcitonin, reference compound]		effect of HSA on potency at hCTR [2]: unaffected by the presence of HSA

Further lines, with some results ahead:

clearance ([1]; iv) [mL/min/kg]	SMILES	further results
13.6	CC[C@H](C)[C@H](NC(=O)[C@@H]1CCCN1C(=O)CNC(=O)[C@H](Cc1ccccc1)NC(=O)[C@H](CCC(=O)O)NC(=O)[C@H](CC(N)=O)NC(=O)[C@H](CO)NC(=O)[C@H](CO)NC(=O)[C@H](CCCCN)NC(=O)[C@@H](NC(=O)[C@H](CC(C)C)NC(=O)[C@H](Cc1ccccc1)NC(=O)[C@H](CC(N)=O)NC(=O)[C@H](CO)NC(=O)[C@H](CC(C)C)NC(=O)[C@H](CCCNC(=N)N)NC(=O)[C@H](CCC(N)=O)NC(=O)[C@@H](NC(=O)[C@H](C)NC(=O)[C@@H]1CSSC[C@H](NC(=O)[C@@H](N)CO)C(=O)N[C@@H](CC(N)=O)C(=O)N[C@@H]([C@@H](C)O)C(=O)N[C@@H](CO)C(=O)N[C@@H]([C@@H](C)O)C(=O)N1)[C@@H](C)O)C(C)C)C(=O)N[C@@H](CC(C)C)C(=O)N1CCC[C@H]1C(=O)N1CCC[C@H]1C(=O)N[C@H](C(=O)N[C@@H](CCCCN)C(=O)N[C@H](C(=O)NCC(=O)N[C@@H](CO)C(=O)N[C@@H](CCC(=O)O)C(=O)N[C@H](C(=O)N[C@@H](Cc1ccc(O)cc1)C(N)=O)[C@@H](C)O)C(C)C)[C@@H](C)O [Compound A4] (H-SCNTSTCATQRLSNFLVKSSNEFGPILPPTKVGSETY-NH2; disulfide 2-7)	
26.4	CC[C@H](C)[C@H](NC(=O)[C@@H]1CCCN1C(=O)CNC(=O)[C@H](Cc1ccccc1)NC(=O)[C@H](CCC(=O)O)NC(=O)[C@H](CC(N)=O)NC(=O)[C@H](CO)NC(=O)[C@H](CO)NC(=O)[C@H](CCCCN)NC(=O)[C@@H](NC(=O)[C@@H](CC(C)C)NC(=O)[C@H](Cc1ccccc1)NC(=O)[C@H](CC(N)=O)NC(=O)[C@H](C)NC(=O)[C@H](CC(C)C)NC(=O)[C@H](CCCNC(=N)N)NC(=O)[C@H](CCC(N)=O)NC(=O)[C@@H](NC(=O)[C@H](C)NC(=O)[C@@H]1CSSC[C@H](NC(=O)[C@@H](N)CO)C(=O)N[C@@H](CC(N)=O)C(=O)N[C@@H]([C@@H](C)O)C(=O)N[C@@H](CO)C(=O)N[C@@H]([C@@H](C)O)C(=O)N1)[C@@H](C)O)C(C)C)C(=O)N[C@@H](CC(C)C)C(=O)N1CCC[C@H]1C(=O)N1CCC[C@H]1C(=O)N[C@H](C(=O)N[C@@H](CCCCN)C(=O)N[C@H](C(=O)NCC(=O)N[C@@H](CO)C(=O)N[C@@H](CCC(=O)O)C(=O)N[C@H](C(=O)N[C@@H](Cc1ccc(O)cc1)C(N)=O)[C@@H](C)O)C(C)C)[C@@H](C)O [Compound A6] (H-SCNTSTCATQRLANF[dL]VKSSNEFGPILPPTKVGSETY-NH2; disulfide 2-7; N-terminus assumed)	
14.4	CC[C@H](C)[C@H](NC(=O)[C@@H]1CCCN1C(=O)CNC(=O)[C@H](Cc1ccccc1)NC(=O)[C@H](CCC(=O)O)NC(=O)[C@H](CC(N)=O)NC(=O)[C@H](CO)NC(=O)[C@H](CO)NC(=O)[C@H](CCCCN)NC(=O)[C@@H](NC(=O)[C@H](CC(C)C)NC(=O)[C@H](Cc1ccc(O)cc1)NC(=O)[C@H](CC(N)=O)NC(=O)[C@H](C)NC(=O)[C@H](CC(C)C)NC(=O)[C@H](CCCNC(=N)N)NC(=O)[C@H](CCC(N)=O)NC(=O)[C@@H](NC(=O)[C@H](C)NC(=O)[C@@H]1CSSC[C@H](NC(=O)[C@@H](N)CO)C(=O)N[C@@H](CC(N)=O)C(=O)N[C@@H]([C@@H](C)O)C(=O)N[C@@H](CO)C(=O)N[C@@H]([C@@H](C)O)C(=O)N1)[C@@H](C)O)C(C)C)C(=O)N[C@@H](CC(C)C)C(=O)N1CCC[C@H]1C(=O)N1CCC[C@H]1C(=O)N[C@H](C(=O)N[C@@H](CCCCN)C(=O)N[C@H](C(=O)NCC(=O)N[C@@H](CO)C(=O)N[C@@H](CCC(=O)O)C(=O)N[C@H](C(=O)N[C@@H](Cc1ccc(O)cc1)C(N)=O)[C@@H](C)O)C(C)C)[C@@H](C)O [Compound A15] (H-SCNTSTCATQRLANYLVKSSNEFGPILPPTKVGSETY-NH2; disulfide 2-7)	
